Test results from the supplement of paper PMC10307832.

Legend:
Test in all cases: relative viability (nuclei count vs DMSO), 5 days (fraction); higher = more cells survive
[1] = compound: Nc1ncn([C@H]2C[C@H](O)[C@@H](CO)O2)c(=O)n1 [Decitabine] + N=C(N)NC(=N)NCCc1ccccc1 [Phenformin] (partner 250 µM)
Summary of the method: (§1)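 Lung cancer cell lines in 1536-well plates were dosed by pin tool the day after seeding, either with one drug alone or with a fixed anchor-drug dose plus five library-drug doses (not always all listed) in √10 steps. After 5 days, cells were fixed and their nuclei stained in one step (final 0.05% Triton X-100, 1% formaldehyde, 1 ug/ml Hoechst), then counted on 4× images. Relative viability is the nuclei count in treated wells divided by that in vehicle wells. Values are medians of duplicate plates.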

[2] = compound: Nc1ncn([C@H]2C[C@H](O)[C@@H](CO)O2)c(=O)n1 [Decitabine] + Cc1nc(Nc2ncc(C(=O)Nc3c(C)cccc3Cl)s2)cc(N2CCN(CCO)CC2)n1 [Dasatinib] (partner 0.075 µM)
Summary of the method: as §1

[3] = compound: COc1cc2c(Oc3ccc4[nH]c(C)cc4c3F)ncnc2cc1OCCCN1CCCC1 [Cediranib] + Cc1cc(Nc2cc(N3CCN(C)CC3)nc(Sc3ccc(NC(=O)C4CC4)cc3)n2)n[nH]1 [Tozasertib] (partner 0.1 µM)
Summary of the method: as §1

[4] = compound: Nc1ncn([C@H]2C[C@H](O)[C@@H](CO)O2)c(=O)n1 [Decitabine] + CC(=O)Nc1cccc(-n2c(=O)n(C3CC3)c(=O)c3c(Nc4ccc(I)cc4F)n(C)c(=O)c(C)c32)c1 [Trametinib] (partner 0.02 µM)
Summary of the method: as §1

Row | Cell Line | relative viability ([1]; first compound 0.04 µM) | relative viability ([1]; first compound 0.1265 µM) | relative viability ([1]; first compound 0.4 µM) | relative viability ([1]; first compound 1.265 µM) | relative viability ([1]; first compound 4 µM) | relative viability ([2]; first compound 0.04 µM) | relative viability ([2]; first compound 0.1265 µM) | relative viability ([2]; first compound 0.4 µM) | relative viability ([2]; first compound 1.265 µM) | relative viability ([2]; first compound 4 µM) | relative viability ([3]; first compound 0.04 µM) | relative viability ([3]; first compound 0.1265 µM) | relative viability ([3]; first compound 0.4 µM) | relative viability ([3]; first compound 1.265 µM) | relative viability ([3]; first compound 4 µM) | relative viability ([4]; first compound 0.04 µM) | relative viability ([4]; first compound 0.1265 µM) | relative viability ([4]; first compound 0.4 µM) | relative viability ([4]; first compound 1.265 µM) | relative viability ([4]; first compound 4 µM)
1 | LK-2 | 0.376 | 0.522 | 0.375 | 0.295 | 0.244 | 0.406 | 0.445 | 0.227 | 0.266 | 0.301 | 0.195 | 0.156 | 0.175 | 0.194 | 0.162 | 0.692 | 0.674 | 0.605 | 0.435 | 0.371
2 | SW 1573 | 0.32 | 0.327 | 0.323 | 0.287 | 0.168 | 0.458 | 0.433 | 0.416 | 0.153 | 0.163 | 0.193 | 0.179 | 0.136 | 0.153 | 0.18 | 0.44 | 0.638 | 0.368 | 0.27 | 0.301
3 | SK-LU-1 | 0.42 | 0.448 | 0.278 | 0.344 | 0.297 | 0.188 | 0.166 | 0.173 | 0.154 | 0.185 | 0.316 | 0.412 | 0.305 | 0.365 | 0.335 | 0.443 | 0.528 | 0.386 | 0.45 | 0.365
4 | NCI-H23 | 0.579 | 0.548 | 0.297 | 0.242 | 0.244 | 0.689 | 0.653 | 0.356 | 0.271 | 0.192 | 0.43 | – | 0.365 | 0.399 | 0.395 | 0.344 | 0.365 | 0.238 | 0.191 | 0.255
5 | NCI-H1355 | 0.432 | 0.385 | 0.338 | 0.277 | 0.323 | 0.61 | 0.6 | 0.369 | 0.276 | 0.296 | 0.548 | 0.684 | 0.482 | 0.564 | 0.492 | 0.371 | 0.382 | 0.337 | 0.224 | 0.248
6 | COR-L23 | 0.362 | 0.311 | 0.303 | 0.253 | 0.253 | 0.255 | 0.347 | 0.29 | 0.161 | 0.18 | 0.182 | 0.192 | 0.19 | 0.264 | 0.183 | 0.374 | 0.452 | 0.321 | 0.219 | 0.23
7 | NCI-H2023 | 0.31 | 0.346 | 0.222 | 0.163 | 0.161 | 0.41 | 0.4 | 0.284 | 0.173 | 0.141 | 0.389 | 0.353 | 0.267 | 0.433 | 0.303 | 0.473 | 0.464 | 0.296 | 0.196 | 0.197
8 | A-427 | 0.239 | 0.265 | 0.19 | 0.18 | 0.164 | 0.51 | 0.341 | 0.214 | 0.196 | 0.206 | 0.208 | – | 0.198 | 0.237 | 0.217 | 0.594 | 0.677 | 0.461 | 0.394 | 0.401
9 | NCI-H1793 | 0.384 | 0.411 | 0.336 | 0.305 | 0.244 | 0.347 | 0.394 | 0.382 | 0.246 | 0.239 | 0.414 | 0.419 | 0.347 | – | 0.329 | 0.399 | 0.407 | 0.463 | 0.339 | 0.35
10 | NCI-H596 | 0.815 | 0.666 | – | 0.582 | 0.53 | 0.59 | 0.585 | – | 0.508 | 0.435 | 1.13 | 0.891 | 0.782 | – | 0.986 | 0.881 | 0.744 | 0.509 | 0.575 | 0.542
11 | LU99A | 0.825 | 1 | 0.757 | 0.648 | 0.627 | 0.508 | 0.615 | 0.653 | 0.481 | 0.373 | 0.292 | 0.285 | 0.285 | 0.286 | 0.292 | 0.51 | 0.569 | 0.632 | 0.397 | 0.396
12 | NCI-H2009 | 0.433 | 0.4 | 0.333 | 0.282 | 0.286 | 0.264 | 0.273 | 0.252 | 0.204 | 0.185 | 0.775 | 0.763 | 0.703 | 0.732 | 0.795 | 0.227 | 0.255 | 0.229 | 0.181 | 0.252
